Here are results for 2 substances from US12433935B2, “Producing method of mesenchymal stem cell for prevention or treatment of brain neuronal disease including ghrelin treatment and use thereof” (Samsung Life Public Welfare Foundation, priority 2020, dated 2025).

The test system of one experiment is AgRP gene. Nature of the experiment: AgRP expression in mesenchymal stem cells (WJ-MSC) treated with ghrelin, real-time PCR. Format: cell-based, human. The method, then:
An experiment was conducted to identify the effect on the expression of AgRP (Agouti related peptide) known as a therapeutic agent for brain neuronal disease such as Alzheimer's disease in mesenchymal stem cells when the mesenchymal stem cells were directly treated with ghrelin. WJ-MSCs were thawed in a 175T flask and stabilized for 3 days, and then cultured for 2 days in MEM alpha medium (Gibco, 12571063) to which 10% FBS (Biowest, S1480) and 5 μg/ml gentamicin were added. Thereafter, the WJ-MSCs were seeded, at 0.8×10^6, on a 6-well plate under 10% FBS conditions and incubated for 1 day. After the incubation, the WJ-MSCs were treated with human recombinant ghrelin (Phoenix Pharmaneuticals, 031-30) at concentrations of 0, 10 pM, 1 nM, and 100 nM, respectively, under FBS-free conditions. Cells were collected after 6 and 12 hours, respectively. The collected WJ-MSC was treated with Trizol, and mRNA was extracted therefrom. Then, real-time PCR analysis thereof was performed using human AgRP Primer. The results of treatment of the cells with human recombinant ghrelin at various concentrations for 6 hours are shown in FIG. 2A. The results of treatment of the cells with human recombinant ghrelin at various concentrations for 12 hours are shown in FIG. 2B.

Another experiment concerns mouse AgRP gene. The experiment can be described thus: AgRP expression in mHYPOE-N46 mouse hypothalamus cell line treated with ghrelin, real-time PCR. As to conditions: mHYPOE-N46 cells, 0, 10 pM, 1 nM, 100 nM, 6 or 12 hours, primers mAgRP1 and mAgRP2 (FIG. 3A-3D). Format: cell-based. The method, then: An experiment was conducted to identify the change in AgRP expression level when the mouse hypothalamus cell line was directly treated with the mouse/rat recombinant ghrelin. Specifically, mHYPOE-N46 mouse hypothalamus cell line was thawed in a 175T flask and stabilized for 3 days, and then was incubated for two days in DMEM high glucose medium (Gibco, 11965-092) supplemented with 10% FBS (Biowest, 51480) and penicillin-streptomycin (Gibco, 15140122). Under 10% FBS conditions, the cells are seeded, at 0.8×10^6, in a 6 well plate and incubated for 1 day. After the incubation, the cells were treated with mouse/rat recombinant ghrelin (Phoenix Pharmaneuticals, 031-31) at concentrations of 0, 10 pM, 1 nM, and 100 nM, respectively, in FBS-free conditions. Cells were collected after 6 and 12 hours, respectively. The collected cells were treated with Trizol. mRNA was extracted therefrom. Then, real-time PCR analysis thereof was performed using two mouse AgRP primer pairs. […] After direct treatment of the cells with ghrelin for 6 or 12 hours, the expression of mAgRP was analyzed. In addition, the results of mouse AgRP expression analysis according to ghrelin treatment time using primer mAgRP2 are shown in FIG. 3C and FIG. 3D.
A general note: Quantitative PCR measures a nucleic acid by following its amplification.

No end group written: not given here.

Regarding “human recombinant ghrelin: human recombinant ghrelin (Phoenix Pharmaneuticals, 031-30); hormone that increases appetite (GSSFLSPEHQRVQQRKESKKPPAKLQPR; ends and bridges not checked; UniProt Q9UBU3 24-51, looked up)”, in the experiment with AgRP gene (WJ-MSC, 0, 10 pM, 1 nM, 100 nM, FBS-free, 6 hours and 12 hours (FIG. 2A, 2B)), the “expression of AgRP gene” value is listed as “increased based on the treatment concentration”. The “expression of AgRP” value in the experiment with AgRP gene (WJ-MSC, 100 nM concentration, 6 and 12 hours) was “significantly increased”. For the substance “mouse ghrelin: mouse/rat recombinant ghrelin (Phoenix Pharmaneuticals, 031-31) (GSSFLSPEHQKAQQRKESKKPPAKLQPR; ends and bridges not checked; UniProt Q9EQX0 24-51, looked up)”, the “expression of mouse AgRP gene” value in the experiment on mouse AgRP gene is “increased according to the concentration of ghrelin”.
